{
  "source": "patent EP0382538A2",
  "about": "“A process for the preparation of cysteine-rich polypeptides, including echistatin” (MERCK & CO. INC., priority 1989, dated 1990)",
  "key": {"platelet aggregation": {"tested_on": "platelet aggregation", "assay": "Platelet aggregation initiated by other agonists", "format": "cell-based", "conditions": "aggregation initiated by thrombin, epinephrin, collagen, or platelet activating factor"}, "[1]": {"assay": "Preliminary in vivo antithrombotic studies"}, "[2]": {"tested_on": "HUMAN PLATELET AGGREGATION", "assay": "Platelet aggregation assay (ADP-initiated, fibrinogen-dependent, Chronolog aggregometer)", "format": "cell-based", "conditions": "inhibition of rate of human platelet aggregation by 50%; washed platelets 2 x 10⁸/ml, fibrinogen 100 µg/mL, Ca²⁺ 1 mM, 10 µM ADP, 37°C; platelets from 2-4 donors, duplicate; read-out: IC₅₀(µM) (95% CONFIDENCE LIMITS)", "method": "Platelet aggregation was measured at 37°C in a Chronolog aggregometer. The reaction mixture contained washed platelets (2 x 10⁸/ml), fibrinogen (100 µg/mL), Ca²⁺ (1 mM), and the platelet aggregation inhibitor fraction to be tested. The aggregation was initiated by adding 10 µM ADP 1 min after the other components had been added. The reaction was allowed to proceed for at least 2 min. The extent of inhibition of aggregation was expressed as the percentage of the rate of aggregation observed in the absence of inhibitor. […]\nThe concentration of peptide necessary to inhibit the rate of human platelet aggregation by 50% (IC₅₀) was determined using platelets from 2-4 donors. Determinations were performed in duplicate for each donor."}},
  "data": [
    {"substance": "Echistatin [Synthetic Echistatin]", "values": [
      {"measurement": "prevention of platelet aggregation", "setting": "platelet aggregation", "value": "prevents aggregation"},
      {"measurement": "antithrombotic effect in vivo", "setting": "[1]", "value": "very effective antithrombotic agent"},
      {"measurement": "IC50", "setting": "[2]", "value": 0.033, "unit": "µM"}
    ]}
  ]
}
